# Laboratory results published in patent US20100055032A1, “METHODS FOR […] IMAGING USING NANOP[…] AGENTS” (NanoScan Imaging LLC, priority 2001, published 2010).
# Assay: CT evaluation of initial uptake and vascular distribution of PH-50 in normal rabbits
# Type: in vivo, New Zealand white rabbits
# Conditions: for Percent Uptake (%) Aorta / Percent Uptake (%) Brain / Percent Uptake (%) Cardiac / Percent Uptake (%) Liver / Percent Uptake (%) Portal Vein / Percent Uptake (%) Posterior Vena Cava: pre-treatment = 0; for Hounsfield Units (HU) Aorta / Hounsfield Units (HU) Brain / Hounsfield Units (HU) Cardiac / Hounsfield Units (HU) Liver / Hounsfield Units (HU) Portal Vein / Hounsfield Units (HU) Posterior Vena Cava: Rabbit No. 1151, infusion 3 mL/5 min IV (150 mg/kg)
# Procedure: One (1) mL of PH-50 injected as a bolus intravenously (IV) via the jugular vein (n=2); and three (3) mL with a five (5) minute infusion via IV by way of the jugular vein (n=2); using the criteria set forth below in Table 1:
# The animals were anesthetized via mask using Isoflorene® prior to each study and maintained under anesthesia during CT scan procedures. The animals were recovered and were mobile and allowed to drink up to the 8 hour study. Digital Subtraction Angiography (DSA) was performed during initial injection (one IV bolus and one infusion), then each rabbit was immediately moved to CT. The CT was performed after the initial injection (one IV bolus and one infusion).
# All CT imaging was performed using a GE® Sytec Sri Helical Scanner (Milwaukee, Wis.) and the images were stored as DICOM3 on GE® optical and CD-Rom medium. The CT imaging parameters for these studies were 1 mm consecutive slices at 120 kvp at 1.5 sec, 200 mA. All scans were done with a standard phantom placed beneath the animal. All CT scans performed were of the entire animal (rostral nasal area to pelvis). Contrast attenuation was measured in Hounsfield units (HU) and expressed as percent (%) uptake, taking into account the calibration from the phantom. The iodine concentration and iodine uptake were estimated post-injection from vascular, lung and liver tissues.
# [1] = Rabbit No. 1151 (infusion), 0 min
# [2] = Rabbit No. 1151 (infusion), 5 min
# [3] = Rabbit No. 1151 (infusion), 15 min
# [4] = Rabbit No. 1151 (infusion), 60 min
# [5] = Rabbit No. 1151 (infusion), 480 min
# [6] = Rabbit No. 1156 (bolus), 15 min
smiles,measurement,setting,value
"CCOC(=O)CCCCCOC(=O)c1c(I)c(NC(C)=O)c(I)c(NC(C)=O)c1I [PH-50, 6-ethoxy-6-oxohexy-3,5-bis(acetylamino)-2,4,6-triiodobenzoate]",Percent Uptake (%) Aorta,[1],44%
same,Percent Uptake (%) Brain,[1],2%
same,Percent Uptake (%) Cardiac,[1],33%
same,Percent Uptake (%) Liver,[1],8%
same,Percent Uptake (%) Portal Vein,[1],48%
same,Percent Uptake (%) Posterior Vena Cava,[1],54%
same,Percent Uptake (%) Aorta,[2],14%
same,Percent Uptake (%) Brain,[2],17%
same,Percent Uptake (%) Cardiac,[2],61%
same,Percent Uptake (%) Liver,[2],32%
same,Percent Uptake (%) Portal Vein,[2],91%
same,Percent Uptake (%) Posterior Vena Cava,[2],44%
same,Percent Uptake (%) Aorta,[3],37%
same,Percent Uptake (%) Brain,[3],6%
same,Percent Uptake (%) Cardiac,[3],4%
same,Percent Uptake (%) Liver,[3],29%
same,Percent Uptake (%) Portal Vein,[3],56%
same,Percent Uptake (%) Posterior Vena Cava,[3],0%
same,Percent Uptake (%) Aorta,[4],39%
same,Percent Uptake (%) Brain,[4],14%
same,Percent Uptake (%) Cardiac,[4],6%
same,Percent Uptake (%) Liver,[4],21%
same,Percent Uptake (%) Portal Vein,[4],−5%
same,Percent Uptake (%) Posterior Vena Cava,[4],−43%
same,Percent Uptake (%) Aorta,[5],−62%
same,Percent Uptake (%) Brain,[5],90.1%
same,Percent Uptake (%) Cardiac,[5],0%
same,Percent Uptake (%) Liver,[5],−19%
same,Percent Uptake (%) Portal Vein,[5],7%
same,Percent Uptake (%) Posterior Vena Cava,[5],−21%
same,Hounsfield Units (HU) Aorta,0 min post injection,49.08 HU
same,Hounsfield Units (HU) Brain,0 min post injection,44.89 HU
same,Hounsfield Units (HU) Cardiac,0 min post injection,48.32 HU
same,Hounsfield Units (HU) Liver,0 min post injection,93.08 HU
same,Hounsfield Units (HU) Portal Vein,0 min post injection,54.03 HU
same,Hounsfield Units (HU) Posterior Vena Cava,0 min post injection,73.00 HU
same,Hounsfield Units (HU) Aorta,5 min post injection,38.85 HU
same,Hounsfield Units (HU) Brain,5 min post injection,51.38 HU
same,Hounsfield Units (HU) Cardiac,5 min post injection,58.67 HU
same,Hounsfield Units (HU) Liver,5 min post injection,113.68 HU
same,Hounsfield Units (HU) Portal Vein,5 min post injection,69.54 HU
same,Hounsfield Units (HU) Posterior Vena Cava,5 min post injection,68.54 HU
same,Hounsfield Units (HU) Aorta,15 min post injection,46.77 HU
same,Hounsfield Units (HU) Brain,15 min post injection,46.75 HU
same,Hounsfield Units (HU) Cardiac,15 min post injection,37.81 HU
same,Hounsfield Units (HU) Liver,15 min post injection,111.22 HU
same,Hounsfield Units (HU) Portal Vein,15 min post injection,56.85 HU
same,Hounsfield Units (HU) Posterior Vena Cava,15 min post injection,47.46 HU
same,Hounsfield Units (HU) Aorta,60 min post injection,47.62 HU
same,Hounsfield Units (HU) Brain,60 min post injection,50.38 HU
same,Hounsfield Units (HU) Cardiac,60 min post injection,38.49 HU
same,Hounsfield Units (HU) Liver,60 min post injection,104.26 HU
same,Hounsfield Units (HU) Portal Vein,60 min post injection,34.46 HU
same,Hounsfield Units (HU) Posterior Vena Cava,60 min post injection,27.00 HU
same,Hounsfield Units (HU) Aorta,480 min post injection,13.00 HU
same,Hounsfield Units (HU) Brain,480 min post injection,34.37 HU
same,Hounsfield Units (HU) Cardiac,480 min post injection,36.35 HU
same,Hounsfield Units (HU) Liver,480 min post injection,69.57 HU
same,Hounsfield Units (HU) Portal Vein,480 min post injection,38.81 HU
same,Hounsfield Units (HU) Posterior Vena Cava,480 min post injection,37.72 HU
same,Percent Uptake (%) Aorta,"Rabbit No. 1156 (bolus), 0 min",317.0%
same,Percent Uptake (%) Brain,"Rabbit No. 1156 (bolus), 0 min",−8%
same,Percent Uptake (%) Cardiac,"Rabbit No. 1156 (bolus), 0 min",38%
same,Percent Uptake (%) Liver,"Rabbit No. 1156 (bolus), 0 min",13%
same,Percent Uptake (%) Portal Vein,"Rabbit No. 1156 (bolus), 0 min",24%
same,Percent Uptake (%) Posterior Vena Cava,"Rabbit No. 1156 (bolus), 0 min",168.0%
same,Percent Uptake (%) Aorta,"Rabbit No. 1156 (bolus), 5 min",118%
same,Percent Uptake (%) Brain,"Rabbit No. 1156 (bolus), 5 min",−15%
same,Percent Uptake (%) Cardiac,"Rabbit No. 1156 (bolus), 5 min",15%
same,Percent Uptake (%) Liver,"Rabbit No. 1156 (bolus), 5 min",26%
same,Percent Uptake (%) Portal Vein,"Rabbit No. 1156 (bolus), 5 min",38%
same,Percent Uptake (%) Posterior Vena Cava,"Rabbit No. 1156 (bolus), 5 min",253%
same,Percent Uptake (%) Aorta,[6],162%
same,Percent Uptake (%) Brain,[6],−8%
same,Percent Uptake (%) Cardiac,[6],12%
same,Percent Uptake (%) Liver,[6],22%
same,Percent Uptake (%) Portal Vein,[6],90%
same,Percent Uptake (%) Posterior Vena Cava,[6],112%
same,Percent Uptake (%) Aorta,"Rabbit No. 1156 (bolus), 60 min",63%
